Experimental data reported in US20070054899A1 (priority 2003, published 2007).
Where two headings read alike, the source gives them in different places.

Legend:
[1] = target: T1, aromatase (microsomes from the human placenta) (Homo sapiens, UniProt P11511); assay: Aromatase inhibition in vitro, tritiated water method, human placenta microsomes; type: biochemical
T1 construct: using microsomes from the human placenta as source of the enzyme; from tissue; host or cells: human placenta microsomes
T1 sequence (P11511 1-503): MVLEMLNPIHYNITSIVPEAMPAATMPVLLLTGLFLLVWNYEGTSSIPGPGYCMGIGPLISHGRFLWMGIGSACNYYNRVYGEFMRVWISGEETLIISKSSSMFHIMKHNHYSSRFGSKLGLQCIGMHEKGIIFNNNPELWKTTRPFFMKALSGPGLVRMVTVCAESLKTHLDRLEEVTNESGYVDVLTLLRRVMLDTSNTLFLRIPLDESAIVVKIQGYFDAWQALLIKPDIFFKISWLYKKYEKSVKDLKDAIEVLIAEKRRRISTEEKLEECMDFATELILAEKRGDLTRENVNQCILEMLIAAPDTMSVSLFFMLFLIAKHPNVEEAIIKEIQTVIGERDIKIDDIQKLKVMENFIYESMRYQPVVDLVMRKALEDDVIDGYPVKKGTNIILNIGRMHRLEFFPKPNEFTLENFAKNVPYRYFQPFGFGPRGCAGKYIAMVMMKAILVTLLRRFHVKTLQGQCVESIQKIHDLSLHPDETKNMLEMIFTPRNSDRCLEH

aromatase (e) = aromatase (e) (UniProt O46512); type: biochemical; conditions: value marked (e); read-out: Activity In vitro IC50(nM), (e)
aromatase (e), sequence (O46512 whole entry): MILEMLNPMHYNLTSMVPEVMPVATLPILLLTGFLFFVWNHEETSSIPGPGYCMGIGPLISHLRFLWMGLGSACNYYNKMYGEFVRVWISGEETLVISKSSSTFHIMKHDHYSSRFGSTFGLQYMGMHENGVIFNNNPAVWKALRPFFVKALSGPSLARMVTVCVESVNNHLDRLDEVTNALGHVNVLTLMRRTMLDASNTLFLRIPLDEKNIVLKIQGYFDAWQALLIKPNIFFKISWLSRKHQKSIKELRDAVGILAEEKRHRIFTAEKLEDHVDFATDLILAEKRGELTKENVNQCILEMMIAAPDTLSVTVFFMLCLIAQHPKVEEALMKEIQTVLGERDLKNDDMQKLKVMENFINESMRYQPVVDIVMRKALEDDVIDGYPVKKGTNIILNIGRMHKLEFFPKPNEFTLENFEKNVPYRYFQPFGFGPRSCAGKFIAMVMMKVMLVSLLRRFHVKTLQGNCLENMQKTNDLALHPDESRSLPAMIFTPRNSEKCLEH

[2] = tested on: uterine hypertrophy induced by androstenedione; assay: Activity in vivo: inhibition of uterine hypertrophy induced by androstenedione; set-up: species or system rat (Sprague-Dawley); conditions: Rattus norvegicus, 96 h, immature female rats, androstenedione 30 mg/kg for 4 days, read-out: % inhibition to doses (μg/Kg); for inhibition in vivo at 0.01 mg/kg: dose 10 μg/Kg; for inhibition in vivo at 0.1 mg/kg: dose 100 μg/Kg; for inhibition in vivo at 1 mg/kg: dose 1000 μg/Kg; for inhibition in vivo at 0.001 mg/kg: dose 1 μg/Kg; for inhibition in vivo at 0.003 mg/kg: dose 3 μg/Kg
Description: The activity in vivo of aromatase inhibition by compounds of formula (I) according to the invention has been tested according to the model established by Bharnagar et al. (1990).
In general, immature female rats of the Sprague-Dawley line of a weight ranging from 40 to 50 g have been treated with a dose of androstenedione at 30 mg/kg for 4 days, in the absence or in the presence of doses of various compounds of formula (I).
Four hours after administration of an aromatase inhibitor, the rats were sacrificed. Their uteruses were removed, cleared of adhering fat and conjunctive tissue, next the uteruses were weighed (wet weight). The dry weight of the uteruses was determined the following day after a step of drying for one night at 80° C.

[3] = value marked (h), read-out: Activity In vitro IC50(nM), (h)
[4] = value without (h)/(e) mark, read-out: Activity In vitro IC50

Cn1c(=O)oc2cc(C(c3ccccc3)n3cnnc3)ccc21 (stereo not shown)
IC50 [1, 3]: > 3000 nM

5-[(4-Cyanophenyl)(1H-1,2,4-triazol-1-yl)methyl]-6-methoxy-1,3-benzoxazol-2(3H)-one [GCA37]
IC50 [1, 4]: 328 nM

Cn1c(=O)sc2cc(C(c3ccccc3)n3ccnc3)ccc21 (racemic) [(+/−)PCH28, 6-[1H-Imidazol-1-yl(phenyl)methyl]-3-methyl-1,3-benzothiazol-2(3H)-one]
IC50 (aromatase (e)): 23.4 nM | inhibition in vivo at 0.01 mg/kg [2]: 13% | inhibition in vivo at 0.1 mg/kg [2]: 25% | inhibition in vivo at 1 mg/kg [2]: 75%

Cn1c(=O)sc2cc(C(c3ccccc3)n3ccnc3)ccc21 (racemic) [(E1)PCH28]
IC50 (aromatase (e)): 24.9 nM

Cn1c(=O)sc2cc(C(c3ccccc3)n3ccnc3)ccc21 (racemic) [(E2) PCH28]
IC50 (aromatase (e)): 22.6 nM

Cn1c(=O)sc2cc(C(c3ccc(C#N)cc3)n3ccnc3)ccc21 (racemic) [PCH165 (+)CD4]
IC50 [1, 4]: 8.81 nM

Cn1c(=O)sc2cc(C(c3ccc(C#N)cc3)n3ccnc3)ccc21 (racemic) [PCH165 (+/−) CD4]
inhibition in vivo at 0.001 mg/kg [2]: 22% | inhibition in vivo at 0.01 mg/kg [2]: 23% | inhibition in vivo at 0.1 mg/kg [2]: 66% | IC50 [1, 4]: 4.54 nM

Cn1c(=O)sc2cc(C(c3ccc(C#N)cc3)n3ccnc3)ccc21 (racemic) [PCH165 (−)CD4]
IC50 [1, 4]: 4.94 nM

Cn1c(=O)oc2cc(C(c3ccccc3)n3ccnc3)ccc21 (stereo not shown) [AL22, 6-[1H-Imidazol-1-yl(phenyl)methyl]-3-methyl-1,3-benzoxazol-2(3H)-one]
IC50 (aromatase (e)): 340 nM | IC50 [1, 3]: 320 nM

COc1cc2oc(=O)[nH]c2cc1C(c1ccc(C#N)cc1)n1ccnc1 (stereo not shown) [GCA36]
IC50 [1, 4]: 19.9 nM

N#Cc1ccc(C(c2ccc(C#N)cc2)n2cncn2)cc1 [Letrozole, reference compound]
inhibition in vivo at 0.001 mg/kg [2]: 66% | inhibition in vivo at 0.003 mg/kg [2]: 74% | inhibition in vivo at 0.005 mg/kg ([2]; dose 5 μg/Kg): 91% | inhibition in vivo at 0.01 mg/kg [2]: 90%

N#Cc1ccc(C(c2ccc3oc(=O)[nH]c3c2)n2ccnc2)cc1 (stereo not shown) [PC11128]
inhibition in vivo at 0.001 mg/kg [2]: 29% | inhibition in vivo at 0.01 mg/kg [2]: 29% | inhibition in vivo at 0.1 mg/kg [2]: 53% | IC50 [1, 4]: 5.83 nM

O=c1[nH]c2cc(C(c3ccncc3)n3ccnc3)ccc2o1 (stereo not shown) [PC11129]
IC50 [1, 4]: 26.8 nM

N#Cc1ccc(C(c2ccc3[nH]c(=O)sc3c2)n2ccnc2)cc1 (stereo not shown) [PC11215]
inhibition in vivo at 0.001 mg/kg [2]: 0% | inhibition in vivo at 0.01 mg/kg [2]: 56% | inhibition in vivo at 0.1 mg/kg [2]: 90% | IC50 [1, 4]: 4.04 nM

O=c1[nH]c2ccc(C(c3ccccc3)n3ccnc3)cc2o1 (stereo not shown) [PCH10, 6-[1H-Imidazol-1-yl(phenyl)methyl]-1,3-benzoxazol-2(3H)-one]
IC50 (aromatase (e)): 103 nM | IC50 [1, 3]: 84.6 nM

Cn1c(=O)oc2cc(C(c3ccc(Cl)cc3)n3ccnc3)ccc21 (stereo not shown) [PCH15, 6-[(4-Chlorophenyl)(1H-imidazol-1-yl)methyl]-3-methyl-1,3-benzoxazol-2(3H)-one]
IC50 [1, 3]: > 2000 nM

CN1C(=O)COc2cc(C(c3ccccc3)n3ccnc3)ccc21 (stereo not shown) [PCH19, 4-Methyl-7-[1H-imidazol-1-yl(phenyl)methyl]-1,4-benzoxazin-3(4H)-one]
IC50 (aromatase (e)): 59.9 nM | IC50 [1, 3]: 52.5 nM

Cn1c(=O)oc2cc(C(c3ccccc3)n3cncn3)ccc21 (stereo not shown) [PCH20, 3-Methyl-6-[phenyl(1H-1,2,4-triazol-1-yl)methyl]-1,3-benzoxazol-2(3H)-one]
IC50 [1, 3]: > 3000 nM

Cn1c(=O)oc2cc(C(c3ccc(C#N)cc3)n3ccnc3)ccc21 (stereo not shown) [PCH27]
IC50 (aromatase (e)): 72 nM | IC50 [1, 3]: 4.62 nM

Cn1c(=O)oc2cc(C(c3ccncc3)n3ccnc3)ccc21 (stereo not shown) [PCH30]
IC50 (aromatase (e)): 477 nM | IC50 [1, 3]: 38 nM

Cn1c(=O)oc2ccc(C(c3ccccc3)n3ccnc3)cc21 (stereo not shown) [PCH31, 3-Methyl-5-[1H-imidazol-1-yl-(phenyl)methyl]-1,3-benzoxazol-2(3H)-one]
IC50 (aromatase (e)): 50.1 nM | IC50 [1, 3]: 46.6 nM

O=c1[nH]c2ccc(C(c3ccccc3)n3ccnc3)cc2s1 (stereo not shown) [PCH100, 6-[1H-Imidazol-1-yl(phenyl)methyl]-1,3-benzothiazol-2(3H)-one]
IC50 (aromatase (e)): 34 nM | IC50 [1, 3]: 33.7 nM

Cn1c(=O)oc2cc(C(c3cccnc3)n3ccnc3)ccc21 (stereo not shown) [PCH116]
IC50 (aromatase (e)): 34.6 nM | IC50 [1, 3]: 33.7 nM

N#Cc1cccc(C(c2ccc3[nH]c(=O)oc3c2)n2ccnc2)c1 (stereo not shown) [PCH119]
IC50 (aromatase (e)): 27.7 nM | IC50 [1, 3]: 25.1 nM

O=c1[nH]c2cc(C(c3ccccc3)n3cncn3)ccc2s1 (stereo not shown) [PCH132]
IC50 [1, 4]: 178 nM

Cn1c(=O)sc2ccc(C(c3ccccc3)n3cncn3)cc21 (stereo not shown) [PCH134]
IC50 [1, 4]: 179 nM

Cn1c(=O)sc2cc(C(c3ccc(C#N)cc3)n3cncn3)ccc21 (stereo not shown) [PCH158]
inhibition in vivo at 0.001 mg/kg [2]: 54% | inhibition in vivo at 0.01 mg/kg [2]: 56% | IC50 [1, 4]: 8.71 nM

Cn1c(=O)oc2ccc(C(c3ccc(Cl)cc3)n3cncn3)cc21 (stereo not shown) [PCH160, 5-[(4-Chlorophenyl)(1H-1,2,4-triazol-1-yl)methyl]-3-methyl-1,3-benzoxazol-2(3H)-one]
IC50 [1, 4]: 18.7 nM

Cn1c(=O)oc2ccc(C(c3ccccc3)n3cncn3)cc21 (stereo not shown) [PCH183, 3-Methyl-5-[1H-1,2,4-triazol-1-yl(phenyl)methyl]-1,3-benzoxazol-2(3H)-one]
IC50 [1, 4]: 1810 nM

O=c1[nH]c2cc(C(c3ccc(Cl)cc3)n3cncn3)ccc2o1 (stereo not shown) [PCH195]
IC50 [1, 4]: 17.1 nM

Cn1c(=O)oc2ccc(C(c3ccc(Cl)cc3)n3cncn3)cc21 (stereo not shown) [PCH196]
IC50 [1, 4]: 24.9 nM

O=C1COc2cc(C(c3ccccc3)n3ccnc3)ccc2N1 (stereo not shown) [PCH211]
IC50 [1, 4]: 74.4 nM

CN1C(=O)COc2ccc(C(c3ccccc3)n3ccnc3)cc21 (stereo not shown) [PCH213]
inhibition in vivo at 0.001 mg/kg [2]: 0% | inhibition in vivo at 0.01 mg/kg [2]: 3% | inhibition in vivo at 0.1 mg/kg [2]: 5% | IC50 [1, 4]: 5.64 nM

O=C1COc2ccc(C(c3ccccc3)n3ccnc3)cc2N1 (stereo not shown) [PCH218]
IC50 [1, 4]: 65.5 nM

CN1C(=O)COc2ccc(C(c3ccc(C#N)cc3)n3ccnc3)cc21 (stereo not shown) [PCH222]
inhibition in vivo at 0.001 mg/kg [2]: 0% | inhibition in vivo at 0.003 mg/kg [2]: 22% | inhibition in vivo at 0.01 mg/kg [2]: 32% | IC50 [1, 4]: 3.44 nM

CN1C(=O)COc2ccc(C(c3ccc(C#N)cc3)n3cncn3)cc21 (stereo not shown) [PCH223]
inhibition in vivo at 0.001 mg/kg [2]: 4% | inhibition in vivo at 0.01 mg/kg [2]: 22% | inhibition in vivo at 0.1 mg/kg [2]: 66%

N#Cc1ccc(C(c2ccc3c(c2)NC(=O)CO3)n2ccnc2)cc1 (stereo not shown) [PCH225]
IC50 [1, 4]: 9.9 nM

O=C1CSc2cc(C(c3ccccc3)n3ccnc3)ccc2N1 (stereo not shown) [PCH227, 7-[1H-Imidazol-1-yl(phenyl)methyl]-1,4-benzothiazin-3(4H)-one]
IC50 [1, 4]: 55.1 nM

N#Cc1ccc(C(c2ccc3c(c2)SCC(=O)N3)n2ccnc2)cc1 (stereo not shown) [PCH229]
inhibition in vivo at 0.01 mg/kg [2]: 11% | inhibition in vivo at 0.1 mg/kg [2]: 42% | inhibition in vivo at 1 mg/kg [2]: 83% | IC50 [1, 4]: 13.8 nM

N#Cc1ccc(C(c2ccc3c(c2)SCC(=O)N3)n2cncn2)cc1 (stereo not shown) [PCH230]
inhibition in vivo at 0.01 mg/kg [2]: 2% | inhibition in vivo at 0.1 mg/kg [2]: 22% | inhibition in vivo at 1 mg/kg [2]: 74% | IC50 [1, 4]: 34.8 nM

CN1C(=O)CSc2cc(C(c3ccc(C#N)cc3)n3cncn3)ccc21 (stereo not shown) [PCH231]
IC50 [1, 4]: 56.6 nM

CN1C(=O)CSc2cc(C(c3ccc(C#N)cc3)n3ccnc3)ccc21 (stereo not shown) [PCH240]
IC50 [1, 4]: 5.38 nM

CCn1c(=O)sc2cc(C(c3ccc(C#N)cc3)n3ccnc3)ccc21 (stereo not shown) [PCH241]
inhibition in vivo at 0.001 mg/kg [2]: 18% | inhibition in vivo at 0.003 mg/kg [2]: 37% | inhibition in vivo at 0.01 mg/kg [2]: 16% | IC50 [1, 4]: 4.29 nM

CCn1c(=O)sc2cc(C(c3ccc([N+](=O)[O-])cc3)n3cncn3)ccc21 (stereo not shown) [PCH243, 3-Ethyl-6-[(4-nitrophenyl)(1H-1,2,4-triazol-1-yl)methyl]-1,3-benzothiazol-2(3H)-one]
IC50 [1, 4]: 3.99 nM

Cn1c(=O)sc2cc(C(c3ccc(C#N)cc3)n3cnnn3)ccc21 (stereo not shown) [PCH248]
IC50 [1, 4]: 11.8 nM

Cn1c(=O)sc2cc(C(c3cccc(C#N)c3)n3cncn3)ccc21 (stereo not shown) [PCH258]
IC50 [1, 4]: 31.7 nM

Cn1c(=O)sc2cc(C(c3ccc([N+](=O)[O-])cc3)n3cncn3)ccc21 (stereo not shown) [PCH259]
inhibition in vivo at 0.001 mg/kg [2]: 31% | inhibition in vivo at 0.01 mg/kg [2]: 63% | inhibition in vivo at 0.1 mg/kg [2]: 88% | IC50 [1, 4]: 3.05 nM

CCn1c(=O)sc2cc(C(c3ccc(C#N)cc3)n3cncn3)ccc21 (stereo not shown) [PCH260]
inhibition in vivo at 0.001 mg/kg [2]: 32% | inhibition in vivo at 0.01 mg/kg [2]: 50% | inhibition in vivo at 0.1 mg/kg [2]: 90% | IC50 [1, 4]: 4.49 nM
